Data reported in US20240285614A1, “PHENOL RIBONUCLEOTIDE REDUCTASE (RNR) INHIBITORS AND USES THEREOF” (Boundless Bio, Inc., priority 2023, published 2024).

Experiments:
[1] = target: T1, RNR (RNR1:RNR2 1:1) (Homo sapiens, UniProt P23921+P31350); assay: RNR enzyme activity, rapid-fire mass spectrometry (RF/MS) assay; format: biochemical; settings: RNR 50 nM, 1:1 (RNR1:RNR2); CDP 5 μM; ATP 1 mM; 37° C., 45 min; compounds screened up to 50 μM
T1 sequence (P23921 1-792): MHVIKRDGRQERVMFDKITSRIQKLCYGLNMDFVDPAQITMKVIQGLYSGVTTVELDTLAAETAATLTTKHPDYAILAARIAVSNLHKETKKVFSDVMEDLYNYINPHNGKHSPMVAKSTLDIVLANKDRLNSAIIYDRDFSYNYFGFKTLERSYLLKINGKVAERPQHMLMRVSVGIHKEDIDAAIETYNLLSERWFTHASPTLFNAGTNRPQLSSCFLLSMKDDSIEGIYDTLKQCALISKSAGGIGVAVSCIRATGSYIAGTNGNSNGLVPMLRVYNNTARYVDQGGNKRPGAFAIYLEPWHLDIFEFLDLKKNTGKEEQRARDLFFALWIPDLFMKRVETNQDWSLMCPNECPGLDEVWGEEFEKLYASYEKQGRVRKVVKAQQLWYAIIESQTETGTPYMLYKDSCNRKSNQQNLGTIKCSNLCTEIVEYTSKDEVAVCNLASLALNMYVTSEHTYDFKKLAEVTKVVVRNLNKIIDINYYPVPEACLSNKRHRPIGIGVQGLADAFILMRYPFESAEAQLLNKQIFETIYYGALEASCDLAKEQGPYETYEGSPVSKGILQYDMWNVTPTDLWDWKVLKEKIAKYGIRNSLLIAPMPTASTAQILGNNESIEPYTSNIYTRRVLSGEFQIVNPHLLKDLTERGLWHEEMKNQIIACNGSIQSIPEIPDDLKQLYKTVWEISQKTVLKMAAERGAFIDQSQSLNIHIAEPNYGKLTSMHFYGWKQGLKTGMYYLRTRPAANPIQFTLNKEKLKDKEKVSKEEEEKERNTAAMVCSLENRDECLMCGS
T1 sequence (P31350 1-389): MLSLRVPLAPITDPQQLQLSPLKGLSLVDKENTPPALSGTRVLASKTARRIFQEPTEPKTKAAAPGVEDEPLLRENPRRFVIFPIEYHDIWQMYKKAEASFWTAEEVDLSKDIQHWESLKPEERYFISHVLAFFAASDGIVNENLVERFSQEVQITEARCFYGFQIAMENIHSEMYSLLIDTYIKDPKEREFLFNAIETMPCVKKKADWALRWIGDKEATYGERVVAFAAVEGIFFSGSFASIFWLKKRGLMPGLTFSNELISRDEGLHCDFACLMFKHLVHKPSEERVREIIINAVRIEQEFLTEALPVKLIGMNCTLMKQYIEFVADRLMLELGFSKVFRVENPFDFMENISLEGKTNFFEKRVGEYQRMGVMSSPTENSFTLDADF
Method: A rapid-fire mass spectrometry (RF/MS) assay was used to assess RNR enzyme activity using a 384 well plate and a robotic platform.
The plate layout included two validated reference compounds (Triapine (3-AP) and Hydroxyurea (HU)): • A dose response in duplicate, top concentration: 5 μM (3-AP) and 250 μM (HU), semi-log • dilutions. • Spike wells in triplicate randomly spotted at four concentrations: • 250 μM, 100 μM, 30 μM and 2 μM for HU • 5 μM, 2 μM, 0.6 μM and 0.04 μM for 3-AP
First, the multidrop pipes were saturated for 30 minutes with enzymatic solution. Then 30 μL of Stop solution was distributed in column 24. Next, 15 μL of enzyme was distributed in column 1 to 24. Next, a pre-incubation step of 15 minutes at room temperature occurred, followed by distribution of 15 μL of substrate solution (column 1 to 24). Next, the plate was incubated for 45 minutes at 37° C. 30 μL of Stop solution was distributed to columns 1 to 23.
The final parameters for the enzyme reactions were: • Incubation: 37° C., 45 min • [CDP]: 5 μM: [ATP]: 1 mM; [NADPH]: No • [RNR]final: 50 nM with 1:1 (RNR1:RNR2) ratio • Final volume: 30 μL • Stop solution: 6% HCOOH containing 2 μM of 15

[2] = test system: pCHK1 (S345) in Colo320 DM cells; assay: Alphalisa assay, detection of pCHK1 (S345) in Colo320 DM cells; format: cell-based; settings: Homo sapiens, COLO 320DM, compound incubation overnight (approximately 16 hours)
Method: Colo320 DM cells (ATCC #CCL-220, derived from human colorectal adenocarcinoma, Dukes' type C) were seeded on a 96-well, cell culture treated assay plate at a density of 50,000 cells/well in 200 μL of RPMI-1640 media supplemented with 10% Fetal Bovine Serum and incubated at 37° C. overnight. The following day, test compound dilutions were added directly to the plated cells by a Tecan digital dispenser to a final DMSO concentration of <0.5%, and incubated at 37° C. overnight (approximately 16 hours). The following day all cull culture media was removed from the cells. 75 μL of 1× AlphaLisa lysis buffer was added to each well and plates were agitated on a shaker for 30 minutes at room temperature. The lysis of cells and detection of pCHK1 (S345) were performed with regents contained within the AlphaLisa Sure Fire assay kit (Perkin Elmer #ALSU-PCHK1-A) according to the manufacturer's instructions. 10 μL of each lysate was then transferred to a white, 384-well assay plate (Perkin Elmer #6008280), 5 μL of Acceptor mix was then added to each well of lysate in the white, 384-well assay plate and incubated in the dark at room temperature for 60 minutes. 5 μL of Donor mix was then added to each well of the white, 384-well assay plate in subdued light and incubated at room temperature for 60 minutes. Plates were read on an Alpha Technology-compatible plate reader using standard AlphaLisa settings.

IC50 [1] [µM]	IC50 [2] [µM]	SMILES
≤ 0.05	5 to 10	O=S(=O)(c1ccc2cc[nH]c2c1)N1CCCN(c2ccc(O)cc2)CC1 [compound 14, 4-(4-((1H-indol-6-yl)sulfonyl)-1,4-diazepan-1-yl)phenol]
0.05 to 0.1	1 to 5	CN(c1ccc(O)cc1)C1CCN(S(=O)(=O)c2ccc3cc[nH]c3c2)CC1 [compound 15, 4-((1-((1H-indol-6-yl)sulfonyl)piperidin-4-yl)(methyl)amino)phenol]
0.1 to 0.5	1 to 5	CN(C1CN(c2ccc(O)cc2)C1)S(=O)(=O)c1ccc2cc[nH]c2c1 [compound 16, N-(1-(4-hydroxyphenyl)azetidin-3-yl)-N-methyl-1H-indole-6-sulfonamide]
0.1 to 0.5	10 to 50	CN(c1ccc(O)cc1)C1CN(S(=O)(=O)c2ccc3cn[nH]c3c2)C1 [compound 18, 4-((1-((1H-indazol-6-yl)sulfonyl)azetidin-3-yl)(methyl)amino)phenol]
≤ 0.05	1 to 5	O=S(=O)(c1ccc2cc[nH]c2c1)N1CC(N(c2ccc(O)cc2)C2CC2)C1 [compound 19, 4-((1-((1H-indol-6-yl)sulfonyl)azetidin-3-yl)(cyclopropyl)amino)phenol]
≤ 0.05	1 to 5	C[C@@H]1CN(c2ccc(O)cc2)CCN1S(=O)(=O)c1ccc2cc[nH]c2c1 [compound 21, (R)-4-(4-((1H-indol-6-yl)sulfonyl)-3-methylpiperazin-1-yl)phenol]
≤ 0.05	1 to 5	CN(c1ccc(O)cc1)C1CN(S(=O)(=O)c2cc3[nH]cc(Cl)c3cc2F)C1 [compound 22, 4-((1-((3-chloro-5-fluoro-1H-indol-6-yl)sulfonyl)azetidin-3-yl)(methyl)amino)phenol]
≤ 0.05	1 to 5	CN(c1ccc(O)cc1)C1CN(S(=O)(=O)c2ccc3ccn(C)c3c2)C1 [compound 23, 4-(methyl(1-((1-methyl-1H-indol-6-yl)sulfonyl)azetidin-3-yl)amino)phenol]
0.05 to 0.1	1 to 5	CN(c1ccc(O)cc1)C1CN(S(=O)(=O)c2cccc3[nH]ccc23)C1 [compound 24, 4-((1-((1H-indol-4-yl)sulfonyl)azetidin-3-yl)(methyl)amino)phenol]
≤ 0.05	≤ 1	CCN(c1ccc(O)cc1)C1CN(S(=O)(=O)c2ccc3cc[nH]c3c2)C1 [compound 25, 4-((1-((1H-indol-6-yl)sulfonyl)azetidin-3-yl)(ethyl)amino)phenol]
≤ 0.05	≤ 1	CN(c1ccc(O)cc1)C1CN(S(=O)(=O)c2ccc3[nH]ccc3c2)C1 [compound 27, 4-((1-((1H-indol-5-yl)sulfonyl)azetidin-3-yl)(methyl)amino)phenol]
≤ 0.05	5 to 10	CN(CC1CN(S(=O)(=O)c2ccc3cc[nH]c3c2)C1)c1ccc(O)cc1 [compound 29, 4-(((1-((1H-indol-6-yl)sulfonyl)azetidin-3-yl)methyl)(methyl)amino) phenol]
0.1 to 0.5	10 to 50	O=S(=O)(c1ccc2cc[nH]c2c1)N1CC2CC1CN2c1ccc(O)cc1 (centres unmarked) [compound 35, 4-(5-((1H-indol-6-yl)sulfonyl)-2,5-diazabicyclo[2.2.1]heptan-2-yl)phenol]
≤ 0.05	≤ 1	O=S(=O)(c1ccc2cc[nH]c2c1)N1CCC(Oc2ccc(O)cc2)C1 (centres unmarked) [compound 40, 4-((1-((1H-indol-6-yl)sulfonyl)pyrrolidin-3-yl)oxy)phenol]
0.1 to 0.5	10 to 50	Cn1ccc2ccc(S(=O)(=O)N3CCC4(CCN(c5ccc(O)cc5)CC4)C3)cc21 [compound 41, 4-(2-((1-methyl-1H-indol-6-yl)sulfonyl)-2,8-diazaspiro[4.5]decan-8-yl)phenol]
≤ 0.05	1 to 5	O=S(=O)(c1ccc2cc[nH]c2c1)N1CCC(Oc2ccc(O)cc2)CC1 [compound 43, 4-((1-((1H-indol-6-yl)sulfonyl)piperidin-4-yl)oxy)phenol]
0.05 to 0.1	5 to 10	O=S(=O)(c1ccc2cc[nH]c2c1)N1CC(O)C(Nc2ccc(O)cc2)C1 (centres unmarked) [compound 44, 1-((1H-indol-6-yl)sulfonyl)-4-((4-hydroxyphenyl)amino) pyrrolidin-3-ol]
0.05 to 0.1	5 to 10	CN(CC1CCN1S(=O)(=O)c1ccc2cc[nH]c2c1)c1ccc(O)cc1 (centres unmarked) [compound 45, 4-(((1-((1H-indol-6-yl)sulfonyl)azetidin-2-yl)methyl)(methyl)amino) phenol]
0.05 to 0.1	1 to 5	O=S(=O)(c1ccc2cc[nH]c2c1)N1CCN(c2ccc(O)cc2)CC12CCC2 [compound 46, 4-(5-((1H-indol-6-yl)sulfonyl)-5,8-diazaspiro[3.5]nonan-8-yl)phenol]
0.1 to 0.5	10 to 50	O=S(=O)(c1cc2ccccc2[nH]1)N1CCC2(CCN(c3ccc(O)cc3)CC2)C1 [compound 47, 4-(2-((1H-indol-2-yl)sulfonyl)-2,8-diazaspiro[4.5]decan-8-yl)phenol]
0.1 to 0.5	10 to 50	O=S(=O)(c1ccc2cc[nH]c2c1)N1CC[C@H](N(Cc2cccnc2)c2ccc(O)cc2)C1 [compound 50, (S)-4-((1-((1H-indol-6-yl)sulfonyl)pyrrolidin-3-yl)(pyridin-3-ylmethyl)amino)phenol]

SMILES	IC50 [1] [µM]	IC50 [2] [µM]
O=S(=O)(c1ccc2cc[nH]c2c1)N1C[C@H]2COC[C@@H](C1)N2c1ccc(O)cc1 [compound 17, 4-((1R,5S)-7-((1H-indol-6-yl)sulfonyl)-3-oxa-7,9-diazabicyclo[3.3.1]nonan-9-yl)phenol]	≤ 0.05	≤ 1
O=S(=O)(c1ccc2cc[nH]c2c1)N1C[C@H]2CC[C@@H](C1)N2c1ccc(O)cc1 [compound 26, 4-((1R,5S)-3-((1H-indol-6-yl)sulfonyl)-3,8-diazabicyclo[3.2.1]octan-8-yl)phenol]	0.1 to 0.5	5 to 10
O=S(=O)(c1ccc2cc[nH]c2c1)N1C[C@H]2CCC[C@@H](C1)N2c1ccc(O)cc1 [compound 28, 4-((1R,5S)-3-((1H-indol-6-yl)sulfonyl)-3,9-diazabicyclo[3.3.1]nonan-9-yl)phenol]	≤ 0.05	1 to 5
O=S(=O)(c1ccc2cc[nH]c2c1)N1[C@@H]2CCC[C@H]1CN(c1ccc(O)cc1)C2 [compound 34, 4-((1R,5S)-9-((1H-indol-6-yl)sulfonyl)-3,9-diazabicyclo[3.3.1]nonan-3-yl)phenol]	≤ 0.05	1 to 5
